# Experimental data taken from patent US20130197023A1, “NEUROPROTECTION BY PHARMACOLOGICAL CHAPERONING OF NICOTINIC ACETYLCHOLINE RECEPTORS” (priority 2012, published 2013).
# Where two headings read alike, the source gives them in different places.
# How the values were obtained:
# [1] = molecular target: α4β2 nAChRs (Mus musculus, UniProt O70174+Q9ERK7); conditions: chronic nicotine, 200 nM for 24 hr
# Source text: We used superecliptic phluorin (SEP) fused to the C-terminus of alpha4 nicotinic receptors (nAChRs) to examine the subcellular distribution and trafficking dynamics of receptors expressed in cortical neurons. SEP is a pH-sensitive version of green fluorescent protein (GFP) that undergoes 488 nm excitation at neutral pH (˜7.4), but loses this excitation maximum under acidic conditions (12). As a result, SEP neither photobleaches nor fluoresces at low pH but regains its fluorescence at neutral and basic pH. Tagging of α4 on the extracellular C-terminus results in the orientation of SEP on the lumenal side of most organelle types in the secretory pathway. While the endoplasmic reticulum (ER) and cis-Golgi have lumenal pH of ˜7.2 and ˜6.7, respectively, the lumen of both the trans-Golgi network and secretory vesicles is much more acidic (pH<6.5) (39). If one illuminates via total internal reflection (TIRF) microscopy, only those receptors resident in nearly neutral organelles close to the plasma membrane, or inserted in the plasma membrane, are visible within the excitation field. Thus, receptors in the later stages of the secretory pathway neither fluoresce nor photobleach due to the acidic environment. […]
# [2] = system: ER exit sites (ERES); type: cell-based, mouse
# Method: Mouse Neuro-2a cells were cultured using standard tissue culture techniques and maintained in 45% DMEM, 45% OptiMEM and 10% FBS. Plasmid concentrations used for transfection were as follows: 500 ng of each nAChR subunit, 75 ng of pCS2-mcherry, 250 ng of Sec24D constructs, 100 ng of pDsRed2-ER, 250 ng of GaIT-eCFP and 500 ng of ATF6-eGFP. 90,000 cells were plated in poly-D-lysine coated 35 mm MatTek glass bottom imaging dishes. The following day, plasmid DNA was mixed with cationic lipids by adding appropriate DNA concentrations to 4 μl of Expressfect transfection reagent in 200 μl DMEM final volume and incubated for 20 min at room temperature to form cationic lipid-DNA complexes. DMEM+DNA-lipid complexes were added to Neuro-2a cells in 1 ml of DMEM+10% FBS and incubated at 37° C. for 4 h. Dishes were rinsed 2× with DMEM, then filled with 3 ml of DMEM+10% FBS and incubated at 37° C. for 48 h. Nicotine, cytisine or DHβE was added at appropriate concentrations during the change of medium following 4 h incubation with Expressfect-plasmid DNA complexes.
# Neuro-2a cells were co-transfected with 500 ng each of α4-mcherry and β2-wt nAChR subunits and 250 ng of the ERES marker, Sec24D-eGFP. Each cell was focused to a plane where the maximum ERES were visualized. Sequential images of eGFP and mcherry fluorescence were obtained and linearly unmixed. For quantification, ERES regions of interest (ROIs) were demarcated using intensity-based thresholding and counted for each cell using the particle analysis feature in ImageJ version 1.44 or later. The fluorescence intensity was obtained for each ERES body within the cells and average ERES intensity was plotted. Error bars for ERES measurements are ±standard error of mean (SEM) and p values are based on a 2-tailed t test.
# [3] = system: eIF2α; conditions: 24 h, 0.1 μM nicotine; for whole cell and cytoplasmic peIF2α fluorescence: p=0.06
# Method: (§1) Cortical neurons were extracted from day 17 mouse embryos; 150,000 cells were plated in each 35 mm poly-l-lysine-coated glass bottom culture dish in a solution containing Neurobasal, B27, and Glutamax supplemented with 3% equine serum. On day four of culture, neurons were treated with 1 μM cytosine arabinoside. Neurons were maintained via 50% exchange with feeding medium (Neurobasal, B27, and Glutamax) twice per wk. Neurons were transfected five days after plating as follows: 1 μg of each nAChR subunit plasmid was incubated with 20 μg Nupherin Neuron in 400 μl of Neurobasal medium. 10 μL of Lipofectamine 2000 was separately incubated for 15 min in 400 μl Neurobasal medium. The two solutions were combined and incubated for 45 min at room temperature, then applied to cells. After 1 hr incubation, the total medium was replaced with fresh 2 ml medium with or without 0.1 μM nicotine. For immunostaining, cultures were fixed the following day with 4% paraformaldehyde (10 min), permeabilized in 0.02% Tris-buffered saline (TBS)-TritonX (15 min) and blocked in 10% goat serum (30 min). Following 2×TBS washes, the appropriate primary antibody in 1% goat serum was applied overnight at 4° C. The following day cultures were rinsed in TBS, and incubated in 1% goat serum containing secondary antibody (1:5000) (30 min). Cells were rinsed in TBS and imaged immediately.
# (§2) Immunostaining employed ATF6 mouse monoclonal (Abcam, 11909, 1:50 dilution), rabbit polyclonal peIF2α and total eIF2α (Cell Signaling Technology, 9721 and 5324, both 1:200 dilution). Alexa 488-labeled secondary antibodies were used (Invitrogen, donkey anti-mouse and goat anti-rabbit).
# [4] = system: ATF6; conditions: 24 hr, 0.1 μM nicotine
# Method: as §1, §2
# [5] = system: Neuro-2a cells; type: cell-based, mouse
# Method: Neuro-2a cells were transfected with α4-eGFP (500 ng)+β2wt (500 ng)+GaIT-mcherry (250 ng) or pDSred2-ER (100 ng) and cells were incubated for 48 h with appropriate concentrations of nicotine, cytisine or DHβE.
# Two color fluorescence signals were separated with a dichroic and optical filters aligned in the emission path where green and red emission was separately aligned to the two halves of an EMCCD. Post-acquisition processing of images used Metamorph to demarcate TGN bodies and to extract number, size and intensity statistics.
# Chain of α4β2 nAChRs (O70174 31-629): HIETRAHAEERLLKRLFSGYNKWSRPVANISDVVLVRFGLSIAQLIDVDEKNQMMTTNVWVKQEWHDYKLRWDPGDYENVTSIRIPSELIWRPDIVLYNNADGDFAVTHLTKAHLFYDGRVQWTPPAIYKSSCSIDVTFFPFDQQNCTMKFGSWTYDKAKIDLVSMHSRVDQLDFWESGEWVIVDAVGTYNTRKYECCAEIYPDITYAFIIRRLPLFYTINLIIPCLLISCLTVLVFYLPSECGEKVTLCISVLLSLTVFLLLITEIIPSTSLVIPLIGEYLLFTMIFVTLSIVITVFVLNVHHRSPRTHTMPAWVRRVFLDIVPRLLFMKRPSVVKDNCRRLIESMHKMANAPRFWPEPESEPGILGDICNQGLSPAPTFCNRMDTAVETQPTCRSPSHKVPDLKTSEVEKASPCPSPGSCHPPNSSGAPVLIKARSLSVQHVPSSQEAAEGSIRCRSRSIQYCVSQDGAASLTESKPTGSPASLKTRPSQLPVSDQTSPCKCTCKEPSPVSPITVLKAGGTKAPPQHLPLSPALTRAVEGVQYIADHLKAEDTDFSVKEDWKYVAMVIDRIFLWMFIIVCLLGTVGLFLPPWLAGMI
# Chain of α4β2 nAChRs (Q9ERK7 26-501): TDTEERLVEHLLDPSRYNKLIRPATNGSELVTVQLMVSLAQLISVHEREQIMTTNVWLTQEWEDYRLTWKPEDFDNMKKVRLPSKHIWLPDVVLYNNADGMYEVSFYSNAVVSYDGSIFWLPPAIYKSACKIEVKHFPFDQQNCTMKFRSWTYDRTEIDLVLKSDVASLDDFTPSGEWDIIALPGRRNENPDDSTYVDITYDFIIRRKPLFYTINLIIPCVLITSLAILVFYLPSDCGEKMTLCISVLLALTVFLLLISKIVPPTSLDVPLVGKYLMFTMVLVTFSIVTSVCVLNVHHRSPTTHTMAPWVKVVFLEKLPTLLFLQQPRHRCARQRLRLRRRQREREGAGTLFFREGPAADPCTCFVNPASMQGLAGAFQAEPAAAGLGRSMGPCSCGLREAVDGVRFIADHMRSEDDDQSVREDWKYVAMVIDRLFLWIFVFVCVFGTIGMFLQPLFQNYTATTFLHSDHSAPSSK
compound,measurement,setting,value
"CN1CCCC1c1cccnc1 (stereo not drawn) [Nicotine, nicotine]","increase in the number of insertion events, α4β2 nAChRs",[1],~2 fold
same,increase in ERES fluorescence / formation of ERES,[2],~2 fold
same,total eIF2α fluorescence within the cytoplasm or nucleus,[3],did not affect
same,total eIF2α fluorescence within the cytoplasm or nucleus,[3]; listed as nicotine,without affecting
same,whole cell and cytoplasmic peIF2α fluorescence,[3],near significant reduction
same,whole cell and cytoplasmic peIF2α fluorescence,[3]; listed as nicotine,trend towards reduction
same,reduction in the nucleus to whole cell ATF6 fluorescence ratio,[4]; compared to untreated cells,50%
same,α4-mcherryβ2wt-expressing cells showing nuclear ATF6 localization,[4]; 56% in the absence of nicotine,14%
same,TGN intensity,[5],no effect
same,effect on the average intensity of TGN bodies (in words),[5],did not affect
same,effect on the number of TGN bodies (in words),[5],increased
same,increase in the average number of TGN bodies per cell,[5],~2 fold
